Results as given in ChEMBL document CHEMBL1201862, “PubChem BioAssay data set” (2004).
“And” between values parts separate entries of the source, which are not always exact repeats. Identical values can stand only once.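 Each compound was tested at five concentrations against cells in 96-well plates for 48 hours. The concentration for 50% growth inhibition is given as GI50.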 The source made the active and inactive calls. Cut-off read from the data, not from the text of the source: active = GI50 up to about 1.1 µM and inactive = higher.

What was measured:
Experiment in all cases: growth of human tumour cells (NCI), 48 h
CAKI-1 = system: CAKI-1
HCC 2998 = system: HCC 2998
HCT-15 = system: HCT-15
HT-29 = system: HT-29
K562 = system: K562
KM12 = system: KM12
MOLT-4 = system: MOLT-4
NCI-H226 = system: NCI-H226
OVCAR-3 = system: OVCAR-3
RPMI-8226 = system: RPMI-8226
SF-295 = system: SF-295
SK-MEL-28 = system: SK-MEL-28
SNB-19 = system: SNB-19
SNB-75 = system: SNB-75
UACC-62 = system: UACC-62
COLO 205 = system: COLO 205
UACC-257 = system: UACC-257
MCF7 = system: MCF7
NCI/ADR-RES = system: NCI/ADR-RES
MDA-N = system: MDA-N

Structure (SMILES)	GI50 (CAKI-1)	GI50 (HCC 2998)	GI50 (HCT-15)	GI50 (HT-29)	GI50 (K562)	GI50 (KM12)	GI50 (MOLT-4)	GI50 (NCI-H226)	GI50 (OVCAR-3)	GI50 (RPMI-8226)	GI50 (SF-295)	GI50 (SK-MEL-28)	GI50 (SNB-19)	GI50 (SNB-75)	GI50 (UACC-62)	GI50 (COLO 205)	GI50 (UACC-257)	GI50 (MCF7)	GI50 (NCI/ADR-RES)	GI50 (MDA-N)
NC(=O)c1ncn(C2OC(CO)C(O)C2O)c1O (stereo not drawn)	83.4 µM (inactive)	56.8 µM (inactive)	65.2 µM	4.69 µM (inactive)	> 100 µM (inactive)	46.6 µM (inactive)	72.1 µM (inactive)	54.6 µM (inactive)	96.8 µM (inactive)	> 100 µM (inactive)	> 100 µM (inactive)	> 100 µM (inactive)	> 100 µM (inactive)	> 100 µM (inactive)	> 100 µM (inactive)	–	–	–	–	–
CCN(CC)C(=S)N/N=C(\C)c1ccccc1O	18.4 µM (inactive)	13.4 µM (inactive)	3.72 µM	19.5 µM (inactive)	0.0568 µM (active)	15.5 µM (inactive)	8.59 µM (inactive)	20.7 µM (inactive)	34.3 µM (inactive)	18.5 µM (inactive)	15.5 µM (inactive)	23.4 µM (inactive)	20.8 µM (inactive)	44.2 µM (inactive)	10.9 µM (inactive)	40.9 µM (inactive)	27 µM (inactive)	–	–	–
Cn1cnc2[nH]c(=O)[nH]c(=S)c21	> 100 µM (inactive)	> 100 µM (inactive)	> 100 µM	> 100 µM (inactive)	> 100 µM (inactive)	> 100 µM (inactive)	> 100 µM (inactive)	> 100 µM (inactive)	> 100 µM (inactive)	> 100 µM (inactive)	> 100 µM (inactive)	–	> 100 µM (inactive)	> 100 µM (inactive)	> 100 µM (inactive)	> 100 µM (inactive)	> 100 µM (inactive)	–	–	–
Cc1nc(N)sc1/N=N/c1cc(Cl)c([N+](=O)[O-])cc1Cl	27.4 µM (inactive)	–	21.4 µM	12.4 µM (inactive)	13.1 µM (inactive)	18.1 µM (inactive)	8.24 µM (inactive)	14 µM (inactive)	15.6 µM (inactive)	2.29 µM (inactive)	23.9 µM (inactive)	10.7 µM (inactive)	29.1 µM (inactive)	< 0.01 µM (active)	16.4 µM (inactive)	31 µM (inactive)	16.7 µM (inactive)	26.9 µM (inactive)	20.6 µM (inactive)	–
CCCCCCCCCCCCOC(=N)N1CCOCC1	4.13 µM (inactive)	10.5 µM (inactive)	4.08 µM	1.82 µM (inactive)	1.88 µM (inactive)	5.53 µM (inactive)	2 µM (inactive)	20.7 µM (inactive)	14.9 µM (inactive)	1.87 µM (inactive)	17 µM (inactive)	12.2 µM (inactive)	18.5 µM (inactive)	13.7 µM (inactive)	9.77 µM (inactive)	1.75 µM (inactive)	9.35 µM (inactive)	–	–	–
Cc1c2c(OCCCCN3CCN(c4ncccn4)CC3)nn(C)c(=O)c2c(C)n1-c1ccccc1	16.9 µM (inactive)	20 µM (inactive)	17.8 µM	24.8 µM (inactive)	30.8 µM (inactive)	18.4 µM (inactive)	26.8 µM (inactive)	20.7 µM (inactive)	19.5 µM (inactive)	20.2 µM (inactive)	16.4 µM (inactive)	18.4 µM (inactive)	19 µM (inactive)	19.5 µM (inactive)	16.8 µM (inactive)	19 µM (inactive)	18.7 µM (inactive)	16.4 µM (inactive)	21.3 µM (inactive)	–
N#Cc1c(-c2ccccc2)c(C#N)c(=S)n(C2OC(CO)C(O)C(O)C2O)c1N (stereo not drawn)	92.7 µM (inactive)	> 100 µM (inactive) and 96.4 µM (inactive)	> 100 µM	> 100 µM (inactive)	> 100 µM (inactive) and 59.4 µM (inactive)	> 100 µM (inactive)	–	> 100 µM (inactive)	> 100 µM (inactive)	> 100 µM (inactive) and 75.5 µM (inactive)	> 100 µM (inactive)	> 100 µM (inactive)	> 100 µM (inactive)	42.2 µM (inactive) and 64.9 µM (inactive)	> 100 µM (inactive)	–	> 100 µM (inactive)	–	–	> 100 µM (inactive)
NNC(=O)C(=O)N/N=C(\CCC(=O)Nc1ccc(Cl)cc1)Cc1nc2ccccc2s1	38.2 µM (inactive)	44.7 µM (inactive)	19.1 µM	44.8 µM (inactive)	18.9 µM (inactive)	51.1 µM (inactive)	18.5 µM (inactive)	> 100 µM (inactive)	18.2 µM (inactive)	25.6 µM (inactive)	36.6 µM (inactive)	71.8 µM (inactive)	30.5 µM (inactive)	81.1 µM (inactive)	22.1 µM (inactive)	32.7 µM (inactive)	32.9 µM (inactive)	–	–	–
c1ccc(C2=NN(c3ccccc3)C3(S2)SC(c2ccccc2)(c2ccccc2)c2ccccc23)cc1 (stereo not drawn)	> 100 µM (inactive)	> 100 µM (inactive)	> 100 µM	> 100 µM (inactive)	> 100 µM (inactive)	> 100 µM (inactive)	> 100 µM (inactive)	> 100 µM (inactive)	> 100 µM (inactive)	> 100 µM (inactive)	> 100 µM (inactive)	> 100 µM (inactive)	> 100 µM (inactive)	> 100 µM (inactive)	> 100 µM (inactive)	> 100 µM (inactive)	> 100 µM (inactive)	–	–	–
CC(=O)NNc1nc(C)c(C(=O)/C=C/c2ccccc2Cl)s1	> 100 µM (inactive)	> 100 µM (inactive)	> 100 µM	> 100 µM (inactive)	> 100 µM (inactive)	> 100 µM (inactive)	> 100 µM (inactive)	> 100 µM (inactive)	> 100 µM (inactive)	> 100 µM (inactive)	> 100 µM (inactive)	> 100 µM (inactive)	> 100 µM (inactive)	> 100 µM (inactive)	> 100 µM (inactive)	> 100 µM (inactive)	> 100 µM (inactive)	–	–	–
O=c1c2ccccc2c(=O)n2n1-c1cccc(c1)CSSCc1cccc-2c1	> 10 µM (inactive)	> 10 µM (inactive)	> 10 µM	> 10 µM (inactive)	> 10 µM (inactive)	> 10 µM (inactive)	> 10 µM (inactive)	> 10 µM (inactive)	> 10 µM (inactive)	> 10 µM (inactive)	43.4 µM (inactive)	> 10 µM (inactive)	> 10 µM (inactive)	> 10 µM (inactive)	> 10 µM (inactive)	> 10 µM (inactive)	> 10 µM (inactive)	–	–	–
O=C(CC1C(=O)Nc2ccccc2[S+]1[O-])Nc1ccc(Cl)cc1 (stereo not drawn)	> 100 µM (inactive)	79.6 µM (inactive)	> 100 µM	> 100 µM (inactive)	> 100 µM (inactive)	> 100 µM (inactive)	50.2 µM (inactive)	> 100 µM (inactive)	> 100 µM (inactive)	> 100 µM (inactive)	> 100 µM (inactive)	> 100 µM (inactive)	93.3 µM (inactive)	29.4 µM (inactive)	37 µM (inactive)	> 100 µM (inactive)	69.5 µM (inactive)	–	–	–
